Experimental data: patent US20150004126A9, “COMPOSITIONS” (GIVAUDAN S.A., priority 2011, published 2015)

Tests used:
[1] = target: N-alpha acyl glutamine aminoacylase (Corynebacterium striatum, UniProt Q8GGD4); test: Malodour generated on cloth with enzyme and HMHA sweat precursor, assessed by a panel; type: biochemical, Corynebacteria; conditions: 0.1% compound in respective test products (un-fragranced base, fragranced base, Febreze) on polycotton cloth with HMHA precursor and enzyme, 37° C. 30 min; panel scale 0-10; vs untreated control
Sequence of N-alpha acyl glutamine aminoacylase (Q8GGD4 whole entry): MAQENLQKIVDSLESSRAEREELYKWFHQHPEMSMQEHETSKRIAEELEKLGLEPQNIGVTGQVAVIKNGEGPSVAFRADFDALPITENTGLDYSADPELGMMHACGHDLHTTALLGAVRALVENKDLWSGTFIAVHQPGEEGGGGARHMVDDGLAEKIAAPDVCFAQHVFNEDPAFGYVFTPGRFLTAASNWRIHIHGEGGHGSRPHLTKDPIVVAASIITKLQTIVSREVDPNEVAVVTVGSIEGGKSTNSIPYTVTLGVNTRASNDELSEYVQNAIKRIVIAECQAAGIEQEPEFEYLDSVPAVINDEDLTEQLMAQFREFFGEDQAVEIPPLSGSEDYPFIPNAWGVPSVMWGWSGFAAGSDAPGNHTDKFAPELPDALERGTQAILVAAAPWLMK
Source text: The objective of the study is to measure the effectiveness of malodour-counteracting compounds for use in the present invention at reducing malodour generated on cloth in the presence of the enzyme N-alpha acyl glutamine aminoacylase, and the sweat precursor for the malodorous fatty acid 3-methyl-3-hydroxy-hexanoic acid (HMHA). The aim is to achieve a significant reduction in malodour on cloth against: • a) an untreated fabric • b) a marketed fabric freshener, namely Spring & Renewal Febreze®.
140 μg of odourless precursor for HMHA (equivalent to 15 minutes of physical exercise) is dissolved in 125 μl of 12% ethanol/88% water and applied to 12.5 cm2 polycotton (40/60 mix) cloth in a 30 ml Beatson jar.
The cloth was allowed to dry completely in a 40° C. oven before checking for residual malodour.
Thereafter, the cloth was moistened with 125 μl of a solution containing 0.33 μg/ml of the enzyme N-α-acyl glutamine aminoacylase in 50 mM phosphate buffer pH 6 and the treated cloth was allowed to incubate in a glass jar at 37° C. for 30 minutes.
Thereafter a few drops of a 10% concentration of HCL were added to protonate the acids.
Malodour was assessed by a panel on a scale of 0 (nothing)-10 (very strong)
Malodour precursor was applied to cloth as described above and the cloth allowed to dry in an oven at 40° C.
125 μl of each of the following solutions was applied on to polycotton cloth already containing the precursor and allowed to dry in a 40° C. oven:
0.1% of the Compounds (I), (II), and (III) defined above (hereinafter referred to generally as “compound”), dissolved in an un-fragranced in-house fabric refresher base 0.1% of each compound dissolved in a fragranced fabric refresher base fragranced with a 0.05% of a proprietary fragrance having a floral-green-aldehyde odour (hereinafter “fragrance”).
0.1% of each inhibitor dissolved in a Febreze(r) Market product (Spring & Renewal) […]

[2] = Solubility in a cyclodextrin-containing fabric refreshener; type: physicochemical; conditions: at 0.1%

| Compound | malodour reduction compared with the control [1] | solubility in a cyclodextrin-containing fabric refreshener [2] |
| --- | --- | --- |
| CCCCC(CC)CNC(=O)N[C@@H](CCC(N)=O)C(=O)O (stereo partly drawn) [Compound III] | clear and significant malodour reduction | soluble |
| CC(CCOC(=O)NC(CCC(N)=O)C(=O)O)CCc1ccccc1 (stereo not drawn) [Compound II] | clear and significant malodour reduction | soluble |
| NC(=O)CC[C@H](NC(=O)OCc1ccccc1)C(=O)O [Compound I] | clear and significant malodour reduction | soluble |
